Key:
Type in all cases: in vivo
[1] = system: vitiligo mouse model (transgenic Krt14-KitL* (SCF) mice); experiment: Vitiligo scoring in vitiligo mouse model; conditions: oral gavage, 6 weeks (30 treatment days), FIG. 1
[2] = system: Alopecia areata mouse model (C3H/HeJ mice); experiment: Hair coverage in Alopecia areata mouse model (C3H/HeJ skin graft); conditions: 150 or 300 mg/kg/day once daily oral gavage, week 8 time point (10 weeks after engraftment), vs vehicle; interim data; FIG. 3
Protocol: The C3H/HeJ mouse strain is known to spontaneously develop alopecia (AA) at a low frequency over a prolonged time frame. Transplantation of AA-affected skin from a C3H/HeJ mouse to unaffected C3H/HeJ recipients will induce the development of AA in nearly 100% of recipients over 4-8 weeks. Accordingly, to produce the AA mouse model, AA-affected C3H/HeJ skin was grafted onto groups of unaffected C3H/HeJ mice. The following treatment groups (n=10 per treatment group) were tested: • 1. Vehicle 0.5% methylcellulose (negative control) • 2. 150 mg/kg/day farudostat • 3. 300 mg/kg/day farudostat Treatments were administered once daily by oral gavage starting 2 weeks after engraftment and concluded after 12 weeks (84 days) of treatment. Photographs were taken at baseline, and every 4 weeks until the end of study Ventral hair growth was scored based on the photographs. Any mouse that had >98% hair coverage was classified as ‘no hair loss’.

PMEL T cells = experiment: Flow cytometry of PMEL T cell counts in tissues of vitiligo mouse model

SMILES: COc1cccc(-c2cc(F)c(Nc3ncccc3C(=O)O)c(F)c2)c1 [farudostat, 2-(3,5-difluoro-3′-methoxybiphenyl-4-ylamino) nicotinic acid]
- final mean vitiligo score ([1]; 75 mg/kg/day, vs vehicle): improvement in vitiligo score
- final mean vitiligo score ([1]; 150 mg/kg/day, vs vehicle and 75 mg/kg/day group): greater improvement in vitiligo score compared to the 75 mg/kg/day group
- mean % hair coverage [2]: slight improvement in % hair coverage
- mean PMEL count, 150 mg/kg/day compared to 75 mg/kg/day (PMEL T cells; 150 mg/kg/day, oral gavage, FIGS. 2A to 2D): greater reduction in mean PMEL count compared to 75 mg/kg/day
- mean PMEL T cell count, dermis (PMEL T cells; farudostat 75 and 150 mg/kg/day, oral gavage, end of experiment, FIG. 2B): reduction in mean Pmel T cell count
- mean PMEL T cell count, epidermis (PMEL T cells; farudostat 75 and 150 mg/kg/day, oral gavage, end of experiment, FIG. 2C): reduction in mean Pmel T cell count
- mean PMEL count, spleen (PMEL T cells; spleen, compared with anti-IFNγ positive control, FIG. 2D): reduction in mean PMEL count in the spleen that was even greater than that observed for anti-IFNγ

Reference: patent US20250262199A1, “TREATMENT OF AUTOIMMUNE SKIN DISEASE” (ASLAN PHARMACEUTICALS PTE LTD, priority 2022, published 2025)
